Literature values as cited in patent US20240156829A1, “Stable Antiemetic Emulsions for Parenteral Administration” (Slayback Pharma LLC, priority 2022, published 2024).
Counter-ions that a name gives are not always drawn.

Key:
[1] = in vivo
[2] = by light or oxygen or heavy metals

Row | solubility | half-life [1] [h] | Stability in a liquid medium [2] | SMILES
1 | very poor | – | – | C[C@@H](O[C@H]1OCCN(Cc2n[nH]c(=O)[nH]2)[C@H]1c1ccc(F)cc1)c1cc(C(F)(F)F)cc(C(F)(F)F)c1 [Aprepitant, 5-([(2R, 3S)-2-((R)-1-[3,5-bis (trifluoromethyl)phenyl]ethoxy)-3-(4-fluoro-phenyl)morpholino]methyl)-1H-1,2,4-triazol-3(2H)-one]
2 | – | 40 | easily oxidized and degraded | O=C1c2cccc3c2[C@H](CCC3)CN1[C@@H]1CN2CCC1CC2 [Palonosetron hydrochloride, (3aS)-2-[(3S)-1-azabicyclo [2.2.2]octan-3-yl]-3a,4,5,6-tetrahydro-3H-benzo[de] isoquinolin-1-one; hydrochloride]
